In US20260207708A1, “THERAPEUTIC USES OF ADIPOSE-SECRETED SIGNALING PROTEIN (ADISSP)” (UNIVERSITY OF MASSACHUSETTS, priority 2023, published 2026):
Where two headings read alike, the source gives them in different places.

Columns and labels:
Akt [1] = experiment: Akt activation in serum-starved brown adipocytes; format: cell-based; settings: for blocking of Akt activation by ADISSP: adipocytes pre-treated with inhibitor 2 hr: S961 0.5 μM, Melittin 1 μM, Gallein 5 μM, wortmannin 1 μM, LDC1267 1 μM, then ADISSP 300 nM 30 min
Experimental: (§1) In some cases adipocytes were pre-treated with inhibitors for 2 hr: S961 (0.5 μM), Melittin (1 μM), Gallein (5 μM), wortmannin (1 μM), and LDC1267 (1 μM).

[2] = tested on: STZ-induced type 1 diabetic mice; experiment: Low-dose streptozotocin (STZ)-induced type 1 diabetic mice; format: in vivo; settings: STZ 50 mg/kg daily Day 1 to Day 5
Experimental: (§2) The effects of ADISSP protein administration on blood glucose and polyuria were evaluated in streptozotocin (STZ)-induced type 1 diabetic mice. A single dose (200 mg/kg) of STZ was ip injected into C57BL6 mice. Eight days post injection, as expected, high-dose STZ caused extremely severe type 1 diabetes with ad libitum glucose level (>600 mg/dL) exceeding the upper limit of the glucose meter. The mice were ip injected with ADISSP protein (50 nmole/kg) or vehicle at 0 hr and 24 h. After each injection, mice were fasted for 6 hours before glucose measurement so the glucose level in the vehicle group would fall below 600 mg/dL. […] We were not able to continue the experiment because the mice were not healthy due to the high dose of STZ. To account for this, a low dose (50 mg/kg) of STZ was injected daily from Day 1 to Day 5 to produce healthy, type 1 diabetes mice. From Day 13, glucose was measured at 7:30 am followed by ip injection of ADISSP protein (70 nmole/kg) or vehicle once a day at 8 am for two weeks. At Day 13, glucose was measured after 2 hour fasting, all other time points were measured at ad libitum state.

euglycemic mice = format: in vivo; settings: 70 nmole/kg ip, 3 hr after injection
Experimental: (§3) To explore the mechanism of ADISSP action in vivo, 3-month-old male mice (n=4/group) with euglycemia were intraperitoneally (ip) injected with purified ADISSP protein (70 nmole/kg) at 0 hr. Glucose and insulin levels and Akt activation were measured 3 hr after injection.

[3] = tested on: insulin receptor substrate 1 (IRS1); experiment: IRS1 activation in serum-starved brown adipocytes; format: cell-based; settings: ADISSP 300 nM, 30 min
Experimental: as §1

Glut4 = Glut4 trafficking to the plasma membrane in Myc-Glut4-GFP transfected adipocytes; format: cell-based; settings: adipocytes serum-starved overnight, treated 30 min; for Glut4 localization to the plasma membrane: Myc staining without permeabilization
Experimental: To evaluate effects of ADISSP on Glut4 trafficking to the plasma membrane, adipocytes were transfected with a Myc-Glut4-GFP plasmid, in which Myc and GFP were fused to the extracellular and intracellular regions of Glut4, respectively. The Adipocytes were serum-starved overnight, and then treated with purified ADISSP protein or insulin for 30 min. The adipocytes were fixed without permeabilization, and stained with Myc antibody and DAPI. […] 95% of GFP-positive cells were also Myc-positive after either ADISSP or insulin treatment, while very few GFP-positive cells were Myc-positive in control samples.

ob/ob mice [4] = experiment: ob/ob mice, single dose then once every 48 hours; format: in vivo
Experimental: The effects of injection of purified ADISSP protein were evaluated on hyperglycemia, hyperinsulinemia, and liver steatosis in ob/ob mice (6 male and 9 female mice in control group and 5 male and 10 female mice in treatment group), which were used as a type 2 diabetic mouse model. The mice were injected intraperitoneally with vehicle or a single dose of purified ADISSP protein (50 nmole/kg). Glucose was monitored for 46 hours. Note, no food was provided in the first 8 hours. […] The glucose-lowering effect of ADISSP protein was not due to any difference of food intake, as there was no food provided in the first 8 hours. 46 hours post the first injection, ob/ob mice were injected with ADISSP (50 nmole/kg) once every 48 hour at 8 am (arrow). Mice were fed ad libitum.

[5] = tested on: STZ-induced type 1 diabetic mice; experiment: High-dose streptozotocin (STZ)-induced type 1 diabetic mice; format: in vivo, C57BL6 mice; settings: STZ 200 mg/kg single dose, ADISSP 50 nmole/kg ip at 0 hr and 24 h
Experimental: as §2

GAN diet NASH mice = experiment: Gubra Amylin NASH (GAN) diet mice: NASH and cardiac hypertrophy; format: in vivo, C57BL6J mice
Source text: To examine the potential effects of Adissp protein on NASH, we fed wild-type male C57BL6J mice with the Gubra Amylin NASH (GAN) diet (Research Diets, D09100310) for 32 weeks to induce a NASH phenotype resembling human NASH. We then treated these mice with Adissp (113 nmole/kg per day) or vehicle. […] At Day 16 of the treatment, a sub-group of mice were sacrificed and NASH phenotype was examined. […] Thus, treatment with Adissp protein rapidly resolved the NASH phenotype.
The remaining mice were continuously treated with 63 nmole/kg per day Adissp protein or vehicle for 31 days.

Akt [6] = experiment: Akt activation in adipose tissue in vivo after single ip dose; set-up: species or system mice; settings: 70 nmole/kg ip, 3 hr after injection
Experimental: as §3

ob/ob mice [7] = format: in vivo
Experimental: To evaluate longer-term effects of treatment with ADISSP, 12-week ob/ob mice (6 male and 8 female mice in control group and 8 male and 8 female mice in treatment group) were used. Glucose levels were measured at 7 am daily. Vehicle or ADISSP protein (62.6 nmole/kg per day) was ip injected once a day at 8 am for 30 days. […] In addition, after one-month treatment of ob/ob mice with ADISSP protein, bone density was examined by X-Ray. […] Instead, a slight increase was observed, as shown in the region in the box in FIG. 7G. Loss of bone density is associated with FGF21 and diabetes drug TZDs.

DIO mice [8] = format: in vivo; settings: 71 nmole/kg per day ip, one month
Experimental: We next performed a one-month treatment of hyperglycemic DIO mice (n=19-20 DIO mice/group) with purified ADISSP protein. Glucose levels were measured every day at 7:30 am followed by daily intraperitoneal injection of ADISSP (71 nmole/kg per day). […] Hypertriglyceridemia (FIG. 9J) and high level of Aspartate aminotransferase (AST) (indicative of liver damage caused by fatty liver) (FIG. 9K) were normalized as well.

DIO mice [9] = experiment: Two-week treatment of high fat-induced obese (DIO) mice; format: in vivo; settings: 65 nmole/kg ip once a day, 14 injections
Experimental: In the experiment shown in FIGS. 7A-G, all daily glucose levels were measured 24-hr post ADISSP injection. A much stronger glucose reduction would have been observed if measured at earlier time points, e.g., at 6-hr or 12-hr following protein injection. […] Male mice (n=19 mice/group) were fed a high fat diet for 20 weeks to render them obese and hyperglycemia. Mice were then ip injected with ADISSP protein (65 nmole/kg) once a day at 8 am for a total of 14 injections. Glucose levels at ad libitum state were measured at 7:30 am, […]. Insulin levels and livers were examined.

tyrosine phosphorylation = experiment: Tyrosine phosphorylation in serum-starved brown adipocytes; format: cell-based; settings: ADISSP 300 nM, 30 min
Experimental: as §1

[10] = 113 nmole/kg per day, Day 16 of treatment
[11] = 62.6 nmole/kg per day ip, 30 days

O=C1OC2(c3ccccc31)c1ccc(O)c(O)c1Oc1c2ccc(O)c1O [Gallein]
blocking of Akt activation by ADISSP (Akt [1]): not blocked

CCOc1cn(-c2ccc(F)cc2C)nc1C(=O)Nc1ccc(Oc2ccnc3cc(OC)c(OC)cc23)c(F)c1 [LDC1267]
blocking of Akt activation by ADISSP (Akt [1]): blocks

CC[C@H](C)[C@H](NC(=O)CN)C(=O)NCC(=O)N[C@@H](C)C(=O)N[C@H](C(=O)N[C@@H](CC(C)C)C(=O)N[C@@H](CCCCN)C(=O)N[C@H](C(=O)N[C@@H](CC(C)C)C(=O)N[C@H](C(=O)N[C@H](C(=O)NCC(=O)N[C@@H](CC(C)C)C(=O)N1CCC[C@H]1C(=O)N[C@@H](C)C(=O)N[C@@H](CC(C)C)C(=O)N[C@H](C(=O)N[C@@H](CO)C(=O)N[C@@H](Cc1c[nH]c2ccccc12)C(=O)N[C@H](C(=O)N[C@@H](CCCCN)C(=O)N[C@@H](CCCNC(=N)N)C(=O)N[C@@H](CCCCN)C(=O)N[C@@H](CCCNC(=N)N)C(=O)N[C@@H](CCC(N)=O)C(=O)N[C@@H](CCC(N)=O)C(N)=O)[C@@H](C)CC)[C@@H](C)CC)[C@@H](C)O)[C@@H](C)O)C(C)C)C(C)C [Melittin]
blocking of Akt activation by ADISSP (Akt [1]): not blocked

ADISSP: recombinant adipose-secreted signaling protein with C-terminal His-tag, purified from medium of transfected Expi293F cells
polyuria ([2]; ADISSP 70 nmole/kg ip once a day for two weeks): improved polyuria | blood glucose ([2]; ADISSP 70 nmole/kg ip once a day for two weeks from Day 13): markedly lowered blood glucose | insulin secretion (euglycemic mice): did not stimulate insulin secretion | blood glucose level (euglycemic mice; 3-month-old male mice): lowers blood glucose level | activation of insulin receptor substrate 1 (IRS1) [3]: did not activate | Akt activation (Akt [1]; serum-starved brown adipocytes, ADISSP 300 nM, 30 min): activates Akt independently of insulin receptor | GFP-positive cells also Myc-positive (Glut4): 95% | Glut4 localization to the plasma membrane (Glut4): induced Glut4 localization to the plasma membrane | duration of glucose-lowering effect after each subsequent injection (ob/ob mice [4]; 50 nmole/kg once every 48 hour): at least 48 hours | hyperinsulinemia (ob/ob mice [4]; 50 nmole/kg once every 48 hour): improvement in hyperinsulinemia | glucose lowered on average (ob/ob mice [4]; 50 nmole/kg once every 48 hour, fed ad libitum): 83.5 mg/dL | liver steatosis (ob/ob mice [4]; 50 nmole/kg once every 48 hour, liver colour and histology): improved | hyperglycemia (ob/ob mice [4]; injection once every 48 hours): sufficient to normalize hyperglycemia | onset of glucose lowering (ob/ob mice [4]; post injection): two | duration of glucose-lowering effect of a single dose (ob/ob mice [4]; single dose 50 nmole/kg ip): more than 20 hours | polyuria [5]: improvement in polyuria | decrease of glucose levels ([5]; 6 hours fasted after each injection): 41-48% | fibrosis (Sirius Red staining) (GAN diet NASH mice; [10]): greatly alleviated | hepatomegaly (liver size and weight) (GAN diet NASH mice; [10]): ameliorated | inflammation (GAN diet NASH mice; [10]): ameliorated | steatosis (GAN diet NASH mice; [10]): ameliorated | hyperglycemia (blood glucose) (GAN diet NASH mice; GAN diet 32 weeks, 113 nmole/kg per day): normalized hyperglycemia | cardiac hypertrophy (heart weight and size) (GAN diet NASH mice; remaining mice continued at 63 nmole/kg per day for 31 days): resolved high fat diet-induced cardiac hypertrophy | Akt activation in vivo (BAT, iWAT, eWAT) (Akt [6]): activated Akt in vivo | body weight gain (ob/ob mice [7]; [11]): reduced body weight gain | glucose tolerance (ob/ob mice [7]; [11]): improved glucose tolerance | insulin sensitivity (ob/ob mice [7]; [11]): improved | liver steatosis (ob/ob mice [7]; [11]): ameliorated liver steatosis | hyperglycemia (daily glucose levels) (ob/ob mice [7]; 62.6 nmole/kg per day ip, 30 days, glucose measured 24-hr post injection): normalized hyperglycemia | bone density by X-Ray (ob/ob mice [7]; mouse, in vivo): did not see decreased bone density. Instead, a slight increase was observed | Aspartate aminotransferase (AST) level (DIO mice [8]): normalized | body weight (DIO mice [8]): decreased body weight | fat mass (DIO mice [8]): reduction of fat mass | fatty liver (DIO mice [8]): completely reversed fatty liver | glucose tolerance (DIO mice [8]): markedly improved | hyperglycemia (daily glucose levels) (DIO mice [8]): completely normalized hyperglycemia | hypertriglyceridemia (serum triglycerides) (DIO mice [8]): normalized | insulin sensitivity (DIO mice [8]): markedly improved | lean mass (DIO mice [8]): but not lean mass | liver weight (DIO mice [8]): normalized liver weight | surface body temperature (DIO mice [8]): higher surface body temperature | fatty liver (DIO mice [9]): amelioration of fatty liver | hyperinsulinemia (DIO mice [9]): reduced hyperinsulinemia | liver weight (DIO mice [9]): reduction of liver weight | daily glucose levels (DIO mice [9]; ad libitum, 6 hr, 12 hr and 24 hr from injection): clear improvement in daily glucose levels | tyrosine phosphorylation (tyrosine phosphorylation): induces a bulk of tyrosine phosphorylation

insulin [reference compound]
GFP-positive cells also Myc-positive (Glut4): 95% | Glut4 localization to the plasma membrane (Glut4): induced Glut4 localization to the plasma membrane
